Bounds are passed on as bounds.

Broadly, the IC50 is the concentration that inhibits the measured activity by half. A high value points to weaker potency.

The target in the experiment is Integrin alpha-IIb/beta-3 (Homo sapiens, UniProt P05106+P08514). As to the kind of experiment: Inhibition of glycoprotein IIb/III integrin mediated fibrinogen binding to activated platelets. In kind it is functional.
Sequence of Integrin alpha-IIb/beta-3 (P05106 27-788 limits assumed): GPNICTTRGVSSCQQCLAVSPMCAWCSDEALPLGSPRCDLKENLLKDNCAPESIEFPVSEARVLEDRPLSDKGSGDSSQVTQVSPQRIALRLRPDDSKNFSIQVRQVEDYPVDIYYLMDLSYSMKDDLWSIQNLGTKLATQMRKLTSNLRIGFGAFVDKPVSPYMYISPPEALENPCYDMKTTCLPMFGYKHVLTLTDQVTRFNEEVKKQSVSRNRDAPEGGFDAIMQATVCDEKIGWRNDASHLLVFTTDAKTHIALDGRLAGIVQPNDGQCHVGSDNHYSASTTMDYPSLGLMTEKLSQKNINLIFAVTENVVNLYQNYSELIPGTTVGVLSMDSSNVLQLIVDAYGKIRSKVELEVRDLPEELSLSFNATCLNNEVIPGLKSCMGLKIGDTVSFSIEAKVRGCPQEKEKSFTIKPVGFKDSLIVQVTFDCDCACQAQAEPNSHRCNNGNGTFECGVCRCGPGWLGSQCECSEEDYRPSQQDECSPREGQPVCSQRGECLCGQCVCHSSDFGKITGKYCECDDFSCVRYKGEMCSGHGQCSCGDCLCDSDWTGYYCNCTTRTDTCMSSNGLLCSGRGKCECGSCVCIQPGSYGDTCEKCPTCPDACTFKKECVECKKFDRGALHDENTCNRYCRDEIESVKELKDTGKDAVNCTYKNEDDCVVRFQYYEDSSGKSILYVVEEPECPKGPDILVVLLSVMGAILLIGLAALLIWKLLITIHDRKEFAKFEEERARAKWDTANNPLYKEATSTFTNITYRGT
Sequence of Integrin alpha-IIb/beta-3 (P08514 32-887 limits assumed): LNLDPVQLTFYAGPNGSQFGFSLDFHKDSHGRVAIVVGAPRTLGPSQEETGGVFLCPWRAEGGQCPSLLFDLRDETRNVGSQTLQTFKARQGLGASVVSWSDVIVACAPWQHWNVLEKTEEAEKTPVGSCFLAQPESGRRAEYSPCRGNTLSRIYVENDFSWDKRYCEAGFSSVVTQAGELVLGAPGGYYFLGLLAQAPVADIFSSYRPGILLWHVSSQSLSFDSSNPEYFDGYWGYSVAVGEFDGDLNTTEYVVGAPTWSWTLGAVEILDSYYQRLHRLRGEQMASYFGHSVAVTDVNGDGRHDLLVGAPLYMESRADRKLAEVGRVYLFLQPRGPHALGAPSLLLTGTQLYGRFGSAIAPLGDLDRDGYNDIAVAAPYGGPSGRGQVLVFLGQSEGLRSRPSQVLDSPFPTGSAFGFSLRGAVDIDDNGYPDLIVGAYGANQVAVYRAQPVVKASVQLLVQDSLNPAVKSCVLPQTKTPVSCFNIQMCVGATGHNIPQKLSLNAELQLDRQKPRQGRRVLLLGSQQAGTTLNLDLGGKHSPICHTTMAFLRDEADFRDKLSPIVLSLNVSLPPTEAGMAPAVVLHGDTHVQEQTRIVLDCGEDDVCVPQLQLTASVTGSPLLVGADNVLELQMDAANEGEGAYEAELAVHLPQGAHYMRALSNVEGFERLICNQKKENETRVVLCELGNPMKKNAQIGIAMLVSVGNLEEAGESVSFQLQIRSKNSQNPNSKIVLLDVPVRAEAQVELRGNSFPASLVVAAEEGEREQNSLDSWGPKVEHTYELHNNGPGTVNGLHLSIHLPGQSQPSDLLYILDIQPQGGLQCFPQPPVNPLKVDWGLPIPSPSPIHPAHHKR
Sequence of Integrin alpha-IIb/beta-3 (P08514 891-1039 limits assumed): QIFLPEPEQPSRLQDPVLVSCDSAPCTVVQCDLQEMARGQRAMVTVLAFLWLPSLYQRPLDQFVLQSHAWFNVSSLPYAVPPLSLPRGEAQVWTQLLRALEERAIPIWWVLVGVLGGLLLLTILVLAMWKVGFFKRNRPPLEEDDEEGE
As for `NCCOc1cccc(C(=O)NC[C@H](NS(=O)(=O)c2ccccc2)C(=O)O)c1`, the IC50 was 9.2 µM. The same measure for `O=C(O)CCNC(=O)c1ccc(N2CCNCC2)cc1`: 230 µM. The result for `NCCCCC(=O)NCC(=O)NC[C@@H](NS(=O)(=O)c1ccccc1)C(=O)O` reads 29 µM; that for `NCCCCCCC(=O)NCC(=O)NC[C@@H](NS(=O)(=O)c1ccccc1)C(=O)O`, 0.38 µM.

As to `O=C(NC[C@H](NS(=O)(=O)c1ccccc1)C(=O)O)c1ccc(CCC2CCCCN2)cc1` (some centres undefined), the IC50 was 0.13 µM.

`NCCCCCOc1ccc(C(=O)NC[C@H](NS(=O)(=O)c2ccccc2)C(=O)O)cc1` yielded an IC50 of 0.013 µM. The compound `O=C(NC[C@H](NS(=O)(=O)c1ccccc1)C(=O)O)c1ccc(CN2CCNCC2)cc1` showed an IC50 of 0.034 µM. The same measure for `NCCCC(=O)NCC(=O)NC[C@@H](NS(=O)(=O)c1ccccc1)C(=O)O`: more than 30 µM; for `NCCCCOc1ccc(C(=O)NC[C@H](NS(=O)(=O)c2ccccc2)C(=O)O)cc1`: 0.023 µM; for `NCCCc1ccc(C(=O)NC[C@H](NS(=O)(=O)c2ccccc2)C(=O)O)cc1`: 0.27 µM. The same measure for `NCCCCCC(=O)NCC(=O)NC[C@@H](NS(=O)(=O)c1ccccc1)C(=O)O`: 2.8 µM; for `NCCc1ccc(C(=O)NC[C@H](NS(=O)(=O)c2ccccc2)C(=O)O)cc1`: 4.9 µM.

The compound `NCCCOc1ccc(C(=O)NC[C@H](NS(=O)(=O)c2ccccc2)C(=O)O)cc1` came in with an IC50 of 0.055 µM. With `NCCOc1ccc(C(=O)NC[C@H](NS(=O)(=O)c2ccccc2)C(=O)O)cc1`, the IC50 is 0.11 µM.

Values taken from ChEMBL document CHEMBL1132685, “Nonpeptide glycoprotein IIB/IIIA inhibitors. 19. A new design paradigm employing linearly minimized, centrally constrained, exosite inhibitors” (Bioorg Med Chem Lett, 1999).
